Experimental data from US20240376097A1, “BCL-2 Inhibitor” (BeiGene Ltd., priority 2020, published 2024).

Columns and labels:
[1] = molecular target: Recombinant human Bcl-2 protein (Homo sapiens (Human), UniProt P10415); test: Bcl-2 TR-FRET Assay; format: binding; details: Bcl-2 wild type, TR-FRET; read-out: Biochemical assay (IC50, nM) Bcl-2 WT
Outline: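 0.05 nM recombinant Bcl-2 preincubated 0.5 h at room temperature with 10-point compound dilutions (top final 1, 0.1, 0.02 or 0.01 uM) in pH 7.5 phosphate buffer. FITC-Bak peptide (0.5 nM) and anti-6His Tb cryptate then added for 1 h. TR-FRET read; IC50 from four-parameter logistic fit.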

[2] = molecular target: recombinant human Bcl-2-G101V protein (Homo sapiens (Human), UniProt P10415, G101V); test: Bcl-2-G101V TR-FRET Assay; format: binding; details: Bcl-2 G101V mutant, TR-FRET; read-out: Biochemical assay (IC50, nM) Bcl-2 G101V
Outline: (§1)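 Percent inhibition of the Bcl-2-G101V–ligand interaction was computed from the 490 nm to 520 nm emission ratio after 337 nm excitation, over increasing compound concentrations; a four-parameter logistic fit gave IC50.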

[3] = test system: recombinant human Bcl-2-G101V protein; test: Bcl-2-G101V TR-FRET Assay; format: binding; details: ratio of biochemical IC50 Bcl-2 G101V / Bcl-2 WT
Outline: as §1

[4] = test system: RS4;11 (BCL-2 dependent acute lymphoblastic leukemia cell line); test: RS4;11 Cell Proliferation Assay; format: cell-based; details: Homo sapiens, RS4-11, RS4;11 cells, read-out: Cellular proliferation assay (IC50, nM) RS4
Outline: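 RS4;11 cells, 50,000 per well in RPMI-1640 with 10% FBS, treated 48 h at 37 °C with a 10-point dilution series topping at 1 μM. Viability read by CellTiter-Glo ATP luminescence; mean IC50 reported.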

[5] = test system: BCL-2 G101V knock-in cell line H96 (derive from RS4;11); test: Bcl 2-G101V Knock-In RS4;11 Cell Proliferation Assay; format: cell-based; details: Homo sapiens, RS4;11 Bcl-2 G101V knock-in clone H96, 48 hrs, CellTiter-GLO, read-out: Cellular proliferation assay (IC50, nM) RS4
Outline: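 H96, a CRISPR-generated RS4;11 clone carrying BCL2-G101V knock-in (WES/RNA-seq validated), seeded 50,000 per well and exposed 48 h at 37 °C to 10-point dilutions topping at 1 or 10 μM. Viability by CellTiter-Glo luminescence; mean IC50.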

Row | SMILES | IC50 [1] | IC50 [2] | Ratio of Bcl-2 G101V/WT [3] | IC50 [4] | IC50 [5]
1 | COc1ccc(CN2CCN(C3CC4(CCN(c5ccc(C(=O)NS(=O)(=O)c6ccc(NC[C@H]7CC[C@](C)(O)CC7)c([N+](=O)[O-])c6)c(Oc6cnc7[nH]cc(F)c7c6)c5)CC4)C3)C(c3ccccc3C(C)C)C2)cc1OC(F)F (stereo partly drawn) [Example 159, 4-(2-(4-(3-(difluoromethoxy)-4-methoxybenzyl)-2-(2-isopropylphenyl)piperazin-1-yl)-7-azaspiro[3.5]nonan-7-yl)-2-((3-fluoro-1H-pyrrolo[2,3-b]pyridin-5-yl)oxy)-N-((4-((((1r,4r)-4-hydroxy-4-methylcyclohexyl)methyl)amino)-3-nitrophenyl)sulfonyl) benzamide] | 0.12 nM | 0.4 nM | 3.4 | 0.386 nM | 1.71 nM
2 | CC(C)c1ccccc1C1CN(Cc2ccc(C3CC3)cc2)CCN1C1CC2(CCN(c3ccc(C(=O)NS(=O)(=O)c4ccc(NC[C@H]5CC[C@](C)(O)CC5)c([N+](=O)[O-])c4)c(Oc4cnc5[nH]cc(F)c5c4)c3)CC2)C1 (stereo partly drawn) [Example 160, 4-(2-(4-(4-cyclopropylbenzyl)-2-(2-isopropylphenyl)piperazin-1-yl)-7-azaspiro[3.5]nonan-7-yl)-2-((3-fluoro-1H-pyrrolo[2,3-b]pyridin-5-yl)oxy)-N-((4-((((1r,4r)-4-hydroxy-4-methylcyclohexyl)methyl)amino)-3-nitrophenyl)sulfonyl) benzamide] | 1.2 nM | 6 nM | 5 | 0.564 nM | 2.87 nM
3 | COc1cc(CN2CCN(C3CC4(CCN(c5ccc(C(=O)NS(=O)(=O)c6ccc(NC[C@H]7CC[C@](C)(O)CC7)c([N+](=O)[O-])c6)c(Oc6cnc7[nH]cc(F)c7c6)c5)CC4)C3)C(c3ccccc3C(C)C)C2)ccc1C1CC1 (stereo partly drawn) [Example 161, 4-(2-(4-(4-cyclopropyl-3-methoxybenzyl)-2-(2-isopropylphenyl)piperazin-1-yl)-7-azaspiro[3.5]nonan-7-yl)-2-((3-fluoro-1H-pyrrolo[2,3-b]pyridin-5-yl)oxy)-N-((4-((((1r,4r)-4-hydroxy-4-methylcyclohexyl)methyl)amino)-3-nitrophenyl)sulfonyl) benzamide] | 0.42 nM | 3.9 nM | 6.8 | 0.46 nM | 1.22 nM
4 | COc1ccc(CN2CCN(C3CC4(CCN(c5ccc(C(=O)NS(=O)(=O)c6ccc(NC[C@H]7CC[C@](C)(O)CC7)c([N+](=O)[O-])c6)c(Oc6cnc7[nH]ccc7c6)c5)CC4)C3)C(c3ccccc3C(C)C)C2)cc1OC(F)(F)F (stereo partly drawn) [Example 163, 2-((1H-pyrrolo[2,3-b]pyridin-5-yl)oxy)-N-((4-((((1r,4r)-4-hydroxy-4-methylcyclohexyl)methyl)amino)-3-nitrophenyl)sulfonyl)-4-(2-(2-(2-isopropylphenyl)-4-(4-methoxy-3-(trifluoromethoxy)benzyl)piperazin-1-yl)-7-azaspiro[3.5]nonan-7-yl)benzamide] | 1.3 nM | 5.5 nM | 4.3 | 1.08 nM | 9.2 nM
5 | CC(C)c1ccccc1C1CN(Cc2ccc3c(c2)OC(F)(F)O3)CCN1C1CC2(CCN(c3ccc(C(=O)NS(=O)(=O)c4ccc(NC[C@H]5CC[C@](C)(O)CC5)c([N+](=O)[O-])c4)c(Oc4cnc5[nH]ccc5c4)c3)CC2)C1 (stereo partly drawn) [Example 168, 2-((1H-pyrrolo[2,3-b]pyridin-5-yl)oxy)-4-(2-(4-((2,2-difluorobenzo[d] [1,3]dioxol-5-yl)methyl)-2-(2-isopropylphenyl)piperazin-1-yl)-7-azaspiro[3.5]nonan-7-yl)-N-((4-((((1r,4r)-4-hydroxy-4-methylcyclohexyl)methyl)amino)-3-nitrophenyl)sulfonyl)benzamide] | 0.79 nM | 4.6 nM | 5.9 | 0.48 nM | 1.68 nM
6 | COc1ccc(CN2CCN(C3CC4(CCN(c5ccc(C(=O)NS(=O)(=O)c6ccc(NC[C@H]7CC[C@](C)(O)CC7)c([N+](=O)[O-])c6)c(Oc6cnc7[nH]ccc7c6)c5)CC4)C3)C(c3ccccc3C(C)C)C2)cc1OC(F)F (stereo partly drawn) [Example 169, 2-((1H-pyrrolo[2,3-b]pyridin-5-yl)oxy)-4-(2-(4-(3-(difluoromethoxy)-4-methoxybenzyl)-2-(2-isopropylphenyl)piperazin-1-yl)-7-azaspiro[3.5]nonan-7-yl)-N-((4-((((1r,4r)-4-hydroxy-4-methylcyclohexyl)methyl)amino)-3-nitrophenyl)sulfonyl)benzamide] | 0.62 nM | 2.4 nM | 3.9 | 0.49 nM | 1.5 nM
7 | CC(C)c1ccccc1C1CN(Cc2ccc(OC3CC3)cc2)CCN1C1CC2(CCN(c3ccc(C(=O)NS(=O)(=O)c4ccc(NC[C@H]5CC[C@](C)(O)CC5)c([N+](=O)[O-])c4)c(Oc4cnc5[nH]ccc5c4)c3)CC2)C1 (stereo partly drawn) [Example 172, 2-((1H-pyrrolo[2,3-b]pyridin-5-yl)oxy)-4-(2-(4-(4-cyclopropoxybenzyl)-2-(2-isopropylphenyl)piperazin-1-yl)-7-azaspiro[3.5]nonan-7-yl)-N-((4-((((1r,4r)-4-hydroxy-4-methylcyclohexyl)methyl)amino)-3-nitrophenyl)sulfonyl)benzamide] | 0.35 nM | 1.9 nM | 5.5 | 0.43 nM | 1.64 nM
8 | COc1ccc(CN2CCN(C3CC4(C3)CN(c3ccc(C(=O)NS(=O)(=O)c5ccc(NCC6CCOCC6)c([N+](=O)[O-])c5)c(Oc5cnc6[nH]ccc6c5)c3)C4)[C@H](c3ccccc3C(C)C)C2)cc1OC [Example 173, (R)-2-((1H-pyrrolo[2,3-b]pyridin-5-yl)oxy)-4-(6-(4-(3,4-dimethoxybenzyl)-2-(2-isopropylphenyl)piperazin-1-yl)-2-azaspiro[3.3]heptan-2-yl)-N-((3-nitro-4-(((tetrahydro-2H-pyran-4-yl)methyl)amino)phenyl)sulfonyl) benzamide] | 0.017 nM | 0.11 nM | 6.5 | 0.18 nM | 0.6 nM
9 | [2H]C([2H])([2H])Oc1ccc(CN2CCN(C3CC4(CCN(c5ccc(C(=O)NS(=O)(=O)c6ccc(NC[C@H]7CC[C@](C)(O)CC7)c([N+](=O)[O-])c6)c(Oc6cnc7[nH]ccc7c6)c5)CC4)C3)C(c3ccccc3C(C)C)C2)cc1OC([2H])([2H])[2H] (stereo partly drawn) [Example 175, 2-((1H-pyrrolo[2,3-b]pyridin-5-yl)oxy)-4-(2-(4-(3,4-bis(methoxy-d3)benzyl)-2-(2-isopropylphenyl)piperazin-1-yl)-7-azaspiro[3.5]nonan-7-yl)-N-((4-((((1r,4r)-4-hydroxy-4-methylcyclohexyl)methyl)amino)-3-nitrophenyl)sulfonyl)benzamide] | 0.041 nM | 0.29 nM | 7.0 | 0.33 nM | 1 nM
